The text below walks through data of patent publication US9062013B2, “Positive allosteric modulators of the α7 nicotinic acetylcholine receptor and uses thereof” (Bionomics Limited, priority 2011, dated 2015).

By melting point is commonly meant the temperature, or range, at which the solid turns liquid.

The test system of the first data set is scopolamine treated mice. Put plainly: T-maze Continuous Alternation Task (T-CAT), scopolamine-induced cognitive impairment. It is filed as in vivo. The conditions noted are these: test compounds administered 60 min prior, scopolamine 20 min prior to the T-maze session. The source says:
Scopolamine is a muscarinic receptor antagonist which is used as a standard/reference drug for inducing cognitive deficits in healthy humans and animals.
The T-maze Continuous Alternation Task (T-CAT) measures spontaneous alternation, which is the innate tendency of mice to alternate free choices in a T-maze over a series of successive runs. This sequential procedure relies on working memory and is sensitive to various pharmacological manipulations affecting memory processes.
The T-maze apparatus is made of gray Plexiglas with a main stem (55 cm long×10 cm wide×25 cm high) and two arms (30 cm long×10 cm wide×25 cm high) positioned at 90 degree angle relative to the main stem. A start box (15 cm long×10 cm wide) is separated from the main stem by a sliding door. Sliding doors are also provided to close specific arms during the forced-choice alternation task.
The experimental protocol consists of one single session, which starts with 1 “forced-choice” trial, followed by 14 “free-choice” trials. In the first “forced-choice” trial, the animal is confined for 5 s in the start arm and then it is released while either the left or right goal arm is blocked by a sliding door. The animal will negotiate the maze, eventually enter the open goal arm, and return to the start position. Immediately after the return to the start position, the left or right goal door is opened and the animal is allowed to choose freely between the left and right goal arm (“free choice” trials). The animal is considered to have entered an arm when it places its four paws in the arm. A session is terminated and the animal is removed from the maze as soon as 14 free-choice trials have been performed or 10 min have elapsed, whichever event occurs first. The percentage of alternation over the 14 free-choice trials is determined for each mouse and is used as an index of working memory performance. This percentage is defined as entry in a different arm of the T-maze over successive visits (i.e., left-right-left-right, etc). Scopolamine administered 20 min prior the initiation of the 1-maze session is used to induce disruption in the spontaneous alternation of mice. Test compounds are administered 60 min prior the start of the T-maze session in order to evaluate their ability to reverse the scopolamine effect.
The apparatus is cleaned between each animal using alcohol (70°). Urine and feces are removed from the maze. During the trials, animal handling and the visibility of the operator are minimized as much as possible.
Turning to `CC1(C)[C@H](C(=O)Nc2cc(C(F)(F)F)n[nH]2)[C@H]1c1ccc(S(N)(=O)=O)cc1` (relative stereo) [Example 2b, 2,2-Dimethyl-trans-3-(4-sulfamoylphenyl)-N-(3-(trifluoromethyl)-1H-pyrazol-5-yl)cyclopropanecarboxamide], the “improvement relative to the scopolamine treated mice (spontaneous alternation)” value is reported as “significant improvement”. The same measure, in the same setting: in the case of `COc1ccc(Cl)cc1NC(=O)[C@@H]1[C@@H](c2ccc(S(N)(=O)=O)cc2)C1(C)C` (relative stereo) [Example 4b, trans-N-(5-Chloro-2-methoxyphenyl)-2,2-dimethyl-3-(4-sulfamoylphenyl)cyclopropanecarboxamide] it was “significant improvement”; in that of `COc1ccc(Cl)cc1NC(=O)[C@@H]1[C@@H](c2ccc(Cl)cc2)C1(C)C` (relative stereo) [Example 5a, trans-N-(5-Chloro-2-methoxyphenyl)-3-(4-chlorophenyl)-2,2-dimethylcyclopropanecarboxamide], “significant improvement”; in that of `COc1ccc(Cl)cc1NC(=O)[C@@H]1[C@@H](c2ccc(S(N)(=O)=O)cc2)C12CCCC2` (relative stereo) [Example 6b, trans-N-(5-Chloro-2-methoxyphenyl)-2-(4-sulfamoylphenyl)spiro[2.4]heptane-1-carboxamide], “significant improvement”. For `NS(=O)(=O)c1ccc([C@@H]2[C@@H](C(=O)Nc3ccc(C(F)(F)F)cc3)C23CCCC3)cc1` (relative stereo) [Example 9b, trans-2-(4-sulfamoylphenyl)-N-(4-(trifluoromethyl)phenyl)spiro[2.4]heptane-1-carboxamide], the “improvement relative to the scopolamine treated mice (spontaneous alternation)” value is “significant improvement”.

For `CC1(C)[C@H](C(=O)Nc2ccncc2)[C@H]1c1ccc(S(N)(=O)=O)cc1` (relative stereo) [Example 10b, 2,2-Dimethyl-trans-N-(pyridin-4-yl)-3-(4-sulfamoylphenyl)cyclopropanecarboxamide], the “improvement relative to the scopolamine treated mice (spontaneous alternation)” value was “significant improvement”.

Tested on in a further data set: not given
Test: not given
Conditions: not given
`Cc1cnc(NC(=O)[C@@H]2[C@@H](c3ccccc3)C2(C)C)s1` (relative stereo) [Example 1a, 2,2-Dimethyl-trans-N-(5-methylthiazol-2-yl)-3-phenylcyclopropanecarboxamide] had a melting point of 132 to 135 °C. Still for that read-out and setting: the same measure for `CC1(C)[C@H](C(=O)Nc2cc(C(F)(F)F)n[nH]2)[C@H]1c1ccccc1` (relative stereo) [Example 2a, 2,2-Dimethyl-trans-3-phenyl-N-(3-(trifluoromethyl)-1H-pyrazol-5-yl)cyclopropanecarboxamide]: 68 to 71 °C. The same measure, in the same setting: the same measure for `COc1cc(OC)c(NC(=O)[C@@H]2[C@@H](c3ccccc3)C2(C)C)cc1Cl` (relative stereo) [Example 3a, trans-N-(5-Chloro-2,4-dimethoxyphenyl)-2,2-dimethyl-3-phenylcyclopropanecarboxamide]: 160 to 162 °C. On the same count and under the same terms, the same measure for `COc1ccc(Cl)cc1NC(=O)[C@@H]1[C@@H](c2ccccc2)C1(C)C` (relative stereo) [Example 4a, trans-N-(5-Chloro-2-methoxyphenyl)-2,2-dimethyl-3-phenylcyclopropanecarboxamide]: 155 to 157 °C; for `COc1ccc(Cl)cc1NC(=O)[C@@H]1[C@@H](c2ccc(Cl)cc2)C1(C)C` (relative stereo) [Example 5a, trans-N-(5-Chloro-2-methoxyphenyl)-3-(4-chlorophenyl)-2,2-dimethylcyclopropanecarboxamide]: 162 to 164 °C. `COc1ccc(NC(=O)[C@@H]2[C@@H](c3ccccc3)C23CCCC3)c(OC)n1` (relative stereo) [Example 8a, trans-N-(2,6-dimethoxypyridin-3-yl)-2-phenylspiro[2.4]heptane-1-carboxamide] gave a melting point of 131 to 133 °C.

In turn, `O=C(Nc1ccc(C(F)(F)F)cc1)[C@@H]1[C@@H](c2ccccc2)C12CCCC2` (relative stereo) [Example 9a, trans-2-phenyl-N-(4-(trifluoromethyl)phenyl)spiro[2.4]heptane-1-carboxamide] had a melting point of 171 to 173 °C. `COc1ccc(Cl)cc1NC(=O)[C@@H]1[C@@H](c2ccc(Br)cc2)C1(C)C` (relative stereo) [Example 12c, trans-N-(5-Chloro-2-methoxyphenyl)-3-(4-bromophenyl)-2,2-dimethylcyclopropanecarboxamide] yielded a melting point of 170 to 172 °C. Still for that read-out and setting: the same measure for `COc1ncccc1NC(=O)[C@@H]1[C@@H](c2ccccc2)C1(C)C` (relative stereo) [Example 13a, trans-N-(2-methoxypyridin-3-yl)-2,2-dimethyl-3-phenylcyclopropanecarboxamide]: 152 to 154 °C; for `O=C(Nc1ccc(C(F)(F)F)cc1Cl)[C@@H]1[C@@H](c2ccccc2)C12CCCC2` (relative stereo) [Example 15a, trans-2-phenyl-N-[2-chloro-4-(trifluoromethyl)phenyl]spiro[2.4]heptane-1-carboxamide]: 131 to 133 °C. Molecule `Cc1cccc([C@@H]2[C@@H](C(=O)Nc3ccc(F)c(F)c3)C2(C)C)c1` (relative stereo) [Example 16d, trans-N-(3,4-Difluoro-phenyl)-2,2-dimethyl-3-m-tolyl-cyclopropanecarboxamide] yielded a melting point of 110 to 113 °C. On the same count and under the same terms, in the case of `COc1ccc(Cl)cc1NC(=O)[C@@H]1[C@@H](c2cccc(C)c2)C1(C)C` (relative stereo) [Example 17a, trans-N-(5-Chloro-2-methoxyphenyl)-2,2-dimethyl-3-m-tolyl-cyclopropanecarboxamide] it was 148 to 150 °C; in that of `COc1ccc(Cl)cc1NC(=O)[C@@H]1[C@@H](c2ccc3c(c2)OC(F)(F)O3)C1(C)C` (relative stereo) [Example 18d, trans-N-(5-Chloro-2-methoxyphenyl)-3-(2,2-difluoro-benzo[1,3]dioxol-5-yl)-2,2-dimethyl-cyclopropane carboxamide], 120 to 122 °C; in that of `COc1ccc(Cl)cc1NC(=O)[C@@H]1[C@@H](c2ccccc2)C12CCCC2` [Example 6a, trans-N-(5-Chloro-2-methoxyphenyl)-2-phenylspirol[2.4]heptane-1-carboxamide], 133 to 135 °C.
